Test system: pancreatic cancer
Assay: Overall survival of pancreatic cancer patients treated with gemcitabine (reference population, blood taken before treatment)
Assay type: in vivo, Homo sapiens
Conditions: patients treated with gemcitabine who have the genetic pro-metastatic fingerprint
Experimental: Samples of whole blood from 61 patients, taken before treatment, packaged in PAXgene tubes in dry ice (supplier: LabConnect, United States) were received and stored at −80° C. They were designated “week 0”.
The RNA samples were divided into 2 groups: • M4: corresponding to the patients who received gemcitabine after collection of the reference blood samples, and who died before month 4; • M15: corresponding to the patients who received gemcitabine after collection of the reference blood samples, and were alive after month 15.
An additional pharmacogenomic study was also carried out. Samples of the RNA from blood from 61 patients were taken before any treatment, and they were analysed by RT-PCR.
The patients treated with gemcitabine who have the genetic pro-metastatic fingerprint have a low overall survival rate (OS) (5.0 months).

Nc1ccn([C@@H]2O[C@H](CO)[C@@H](O)C2(F)F)c(=O)n1 [Gemcitabine]
overall survival time: 5.0 months

Source: patent US20180105881A1, “METHOD FOR DETERMINING THE SURVIVAL PROGNOSIS OF A PATIENT SUFFERING FROM PANCREATIC CANCER” (ACOBIOM, priority 2014, published 2018)
